Assay results from patent US8138119B2, “Alkoxyalkyl spirocyclic tetramic acids and tetronic acids” (Bayer Cropscience AG, priority 2005, dated 2012).

Assays:
Format in all cases: in vivo
cereal = assay: Profiling test, herbicidal post-emergence action with safener: container trials with cereal in a greenhouse, Mefenpyr 1 day prior to herbicide application; conditions: summer barley, 28 days after application, 25 g of a.i./ha, without safener
Protocol: Seeds of monocotyledonous and dicotyledonous weed and crop plants are placed in sandy loam soil in wood fibre pots or in plastic pots, covered with soil and cultivated in a greenhouse, during the vegetation period also outdoors outside of the greenhouse, under good growth conditions. 2-3 weeks after sowing, the test plants are treated at the one- to three-leaf stage. The test compounds, formulated as wettable powders (WP) or liquid (EC), are, in various dosages with a water application rate of 300 l/ha (converted), with wetting agent (0.2 to 0.3%) added, sprayed onto the plants and the surface of the soil. […]
(§1) If it is additionally to be tested as to whether safeners can improve the plant compatibility of test substances in the case of crop plants, the following options are used for applying the safener: • seeds of the crop plants are, before sowing, dressed with the safener substance (the amount of safener stated in percent, based on the weight of the seed) • before the application of the test substances, the proper plants are sprayed with the safener at a certain application rate per hectare (usually 1 day before the application of the test substances) • the safener is applied together with the test substance as a tank mix (the amount of safener stated in g/ha or as a ratio, based on the herbicide).
(§2) By comparing the effect of the test substances on crop plants without or with safener treatment, it is possible to assess the effect of the safener substance.

maize = assay: Profiling test, herbicidal pre-emergence action with safener: container trials with maize in the greenhouse, Ex. II-e-5 1 day prior to herbicide application; conditions: 28 days after application, without safener
Protocol: Seeds of monocotyledonous and dicotyledonous weed and crop plants are placed in sandy loam soil in wood fibre pots or in plastic pots and covered with soil. The pots are watered slightly, and the soil surface is then treated with various dosages of the test compounds, formulated as wettable powders (WP) or liquid (EC), at a water application rate of 300 l/ha (converted). The pots with the plants are cultivated in a greenhouse, during the vegetation period also outdoors outside of the greenhouse, under good growth conditions. 3-4 weeks after sowing and the treatment of the pots, the activity of the preparations is rated visually in comparison to untreated controls (herbicidal activity in percent (%): 100% activity=the plants have died, 0% activity=like control plants).
as §1, with “pots of crop” for “proper”
as §2

[1] = test system: caterpillars of the diamondback moth (Plutella xylostella); assay: Plutella test (PLUTMA); conditions: 100 ppm, cabbage leaves dipped
Protocol: (§3) Solvent: 7 parts by weight of dimethylformamide
(§4) Emulsifier: 2 parts by weight of alkylaryl polyglycol ether
(§5) To produce a suitable preparation of active compound, 1 part by weight of active compound is mixed with the stated amounts of solvent and emulsifier, and the concentrate is diluted with emulsifier-containing water to the desired concentration.
Cabbage leaves (Brassica oleracea) are treated by being dipped into the active compound preparation of the desired concentration and populated with caterpillars of the diamondback moth (Plutella xylostella) while the leaves are still moist.
(§6) After the desired period of time, the kill in % is determined. 100% means that all caterpillars have been killed; 0% means that none of the caterpillars have been killed.

[2] = test system: caterpillars of the armyworm (Spodoptera exigua, resistant strain); assay: Spodoptera exigua test; resistant strain (SPODEX R); conditions: 100 ppm, cabbage leaves dipped
Protocol: as §3, §4, §5
Cabbage leaves (Brassica oleracea) are treated by being dipped into the active compound preparation of the desired concentration and populated with caterpillars of the armyworm (Spodoptera exigua, resistant strain) while the leaves are still moist.
as §6

[3] = test system: caterpillars of the armyworm (Spodoptera exigua); assay: Spodoptera exigua test (SPODEX); conditions: 100 ppm, cabbage leaves dipped
Protocol: as §3, §4
To produce a suitable preparation of active compound, 1 part by weight of active compound is mixed with the stated amounts of solvent and emulsifier, and the concentrate is diluted with water to the desired concentration.
Cabbage leaves (Brassica oleracea) are treated by being dipped into the active compound preparation of the desired concentration and populated with caterpillars of the armyworm (Spodoptera exigua) while the leaves are still moist.
as §6

CCc1cc(Cl)cc(OC)c1C1=C(O)C2(CCC(COC)CC2)NC1=O (single isomer, unassigned) [Example I-1-a-4]
Summer barley observed (%) (cereal): 50% | Maize - Arsenal observed (%) (maize; 12.5 g of a.i./ha): 40% | Maize - Arsenal observed (%) (maize; 25 g of a.i./ha): 65%

COCC1CCC2(CC1)NC(=O)C(c1cc(-c3ccc(Cl)cc3)ccc1C)=C2O (single isomer, unassigned) [Example I-1-a-5]
efficacy (kill of caterpillars) [1]: ≥ 80% | efficacy (kill of caterpillars) [2]: ≥ 80% | efficacy (kill of caterpillars) [3]: ≥ 80%

CCOC(=O)OC1=C(c2c(Br)cc(C)cc2CC)C(=O)NC12CCC(COC)CC2 (single isomer, unassigned) [Example I-1-c-6]
Maize - Cecilia observed (%) (maize; 12.5 g of a.i./ha): 60%

CCOC(=O)OC1=C(c2c(CC)cc(Cl)cc2OC)C(=O)NC12CCC(COC)CC2 (single isomer, unassigned) [Example I-1-c-7]
Maize - Arsenal observed (%) (maize; 25 g of a.i./ha): 60%

CCOC(=O)OC1=C(c2c(C)cc(C)cc2C)C(=O)NC12CCCC(COC)C2 (single isomer, unassigned) [Example I-1-c-9]
Maize - Cecilia observed (%) (maize; 100 g of a.i./ha): 50%
